In article PMC10905675, “INX-315, a Selective CDK2 Inhibitor, Induces Cell Cycle Arrest and Senescence in Solid Tumors” (Cancer Discovery, 2023):

How the values were obtained:
Test in all cases: SelectScreen ZLYTE
Format in all cases: biochemical
Settings in all cases: INX-0315 at 100nM
MATK (HYL) = biological target: T1, MATK (HYL) (Homo sapiens, UniProt P42679)
T1 construct: purchased Thermo Fisher Scientific SelectScreen (plus Nanosyn / Reaction Biology for CDK/cyclin lines)
How it was run: (§1)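 A single-dose pass at 100 nmol/L INX-315 in 1% DMSO came first. Curves of 10 points from 1 µmol/L to 0.0495 nmol/L followed, using standard predetermined assay settings.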

EPHA1 = biological target: T2, EPHA1 (Homo sapiens, UniProt P21709)
T2 construct: purchased Thermo Fisher Scientific SelectScreen (plus Nanosyn / Reaction Biology for CDK/cyclin lines)
How it was run: as §1

PRKCH (PKC eta) = biological target: T3, PRKCH (PKC eta) (Homo sapiens, UniProt P24723)
T3 construct: purchased Thermo Fisher Scientific SelectScreen (plus Nanosyn / Reaction Biology for CDK/cyclin lines)
How it was run: as §1

KIT = biological target: T4, KIT (Homo sapiens, UniProt P10721)
T4 construct: purchased Thermo Fisher Scientific SelectScreen (plus Nanosyn / Reaction Biology for CDK/cyclin lines)
How it was run: as §1

MAPK9 (JNK2) = biological target: T5, MAPK9 (JNK2) (Homo sapiens, UniProt P45984)
T5 construct: purchased Thermo Fisher Scientific SelectScreen (plus Nanosyn / Reaction Biology for CDK/cyclin lines)
How it was run: as §1

PRKG2 (PKG2) = biological target: T6, PRKG2 (PKG2) (Homo sapiens, UniProt Q13237)
T6 construct: purchased Thermo Fisher Scientific SelectScreen (plus Nanosyn / Reaction Biology for CDK/cyclin lines)
How it was run: as §1

MAP2K1 (MEK1) = biological target: T7, MAP2K1 (MEK1) (Homo sapiens, UniProt Q02750)
T7 construct: purchased Thermo Fisher Scientific SelectScreen (plus Nanosyn / Reaction Biology for CDK/cyclin lines)
How it was run: as §1

FLT3 = biological target: T8, FLT3 (Homo sapiens, UniProt P36888)
T8 construct: purchased Thermo Fisher Scientific SelectScreen (plus Nanosyn / Reaction Biology for CDK/cyclin lines)
How it was run: as §1

RPS6KA5 (MSK1) = biological target: T9, RPS6KA5 (MSK1) (Homo sapiens, UniProt O75582)
T9 construct: purchased Thermo Fisher Scientific SelectScreen (plus Nanosyn / Reaction Biology for CDK/cyclin lines)
How it was run: as §1

ERBB4 (HER4) = biological target: T10, ERBB4 (HER4) (Homo sapiens, UniProt Q15303)
T10 construct: purchased Thermo Fisher Scientific SelectScreen (plus Nanosyn / Reaction Biology for CDK/cyclin lines)
T10 sequence (Q15303 26-1308): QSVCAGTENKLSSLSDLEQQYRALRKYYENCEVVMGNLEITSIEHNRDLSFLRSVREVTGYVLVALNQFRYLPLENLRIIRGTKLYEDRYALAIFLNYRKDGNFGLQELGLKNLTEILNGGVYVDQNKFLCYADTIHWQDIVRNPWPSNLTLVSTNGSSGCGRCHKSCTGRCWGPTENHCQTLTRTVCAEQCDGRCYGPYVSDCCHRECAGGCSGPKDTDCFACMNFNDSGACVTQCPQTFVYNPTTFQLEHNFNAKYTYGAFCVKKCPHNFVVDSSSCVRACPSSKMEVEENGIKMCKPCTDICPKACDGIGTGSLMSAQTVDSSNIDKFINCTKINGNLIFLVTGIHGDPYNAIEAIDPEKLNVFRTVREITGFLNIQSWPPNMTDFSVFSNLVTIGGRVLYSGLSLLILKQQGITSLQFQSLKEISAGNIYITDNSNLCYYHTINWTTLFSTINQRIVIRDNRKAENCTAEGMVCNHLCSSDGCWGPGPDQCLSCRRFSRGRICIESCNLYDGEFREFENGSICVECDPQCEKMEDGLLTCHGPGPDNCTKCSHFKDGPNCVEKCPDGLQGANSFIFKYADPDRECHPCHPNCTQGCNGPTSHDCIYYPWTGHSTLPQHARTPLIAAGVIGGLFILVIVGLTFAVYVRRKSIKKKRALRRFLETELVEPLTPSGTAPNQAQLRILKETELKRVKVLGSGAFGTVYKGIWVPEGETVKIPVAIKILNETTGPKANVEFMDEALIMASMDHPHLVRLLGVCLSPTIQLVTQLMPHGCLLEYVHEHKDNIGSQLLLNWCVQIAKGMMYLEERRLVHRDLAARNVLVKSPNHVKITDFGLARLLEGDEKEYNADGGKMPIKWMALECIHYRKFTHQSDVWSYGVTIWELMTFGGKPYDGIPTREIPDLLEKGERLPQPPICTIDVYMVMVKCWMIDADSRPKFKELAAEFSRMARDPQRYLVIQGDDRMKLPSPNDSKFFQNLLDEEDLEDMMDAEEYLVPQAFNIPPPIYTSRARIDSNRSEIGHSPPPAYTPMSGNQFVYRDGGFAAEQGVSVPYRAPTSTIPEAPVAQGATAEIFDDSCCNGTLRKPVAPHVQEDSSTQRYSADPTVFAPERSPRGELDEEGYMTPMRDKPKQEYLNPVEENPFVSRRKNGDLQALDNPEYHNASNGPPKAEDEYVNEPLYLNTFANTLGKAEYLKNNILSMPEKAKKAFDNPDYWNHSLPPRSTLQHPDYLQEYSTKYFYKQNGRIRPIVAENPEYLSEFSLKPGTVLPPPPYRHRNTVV
How it was run: as §1

GSK3A (GSK3 alpha) = biological target: T11, GSK3A (GSK3 alpha) (Homo sapiens, UniProt P49840)
T11 construct: purchased Thermo Fisher Scientific SelectScreen (plus Nanosyn / Reaction Biology for CDK/cyclin lines)
How it was run: as §1

EPHA8 = biological target: T12, EPHA8 (Homo sapiens, UniProt P29322)
T12 construct: purchased Thermo Fisher Scientific SelectScreen (plus Nanosyn / Reaction Biology for CDK/cyclin lines)
T12 sequence (P29322 28-1005): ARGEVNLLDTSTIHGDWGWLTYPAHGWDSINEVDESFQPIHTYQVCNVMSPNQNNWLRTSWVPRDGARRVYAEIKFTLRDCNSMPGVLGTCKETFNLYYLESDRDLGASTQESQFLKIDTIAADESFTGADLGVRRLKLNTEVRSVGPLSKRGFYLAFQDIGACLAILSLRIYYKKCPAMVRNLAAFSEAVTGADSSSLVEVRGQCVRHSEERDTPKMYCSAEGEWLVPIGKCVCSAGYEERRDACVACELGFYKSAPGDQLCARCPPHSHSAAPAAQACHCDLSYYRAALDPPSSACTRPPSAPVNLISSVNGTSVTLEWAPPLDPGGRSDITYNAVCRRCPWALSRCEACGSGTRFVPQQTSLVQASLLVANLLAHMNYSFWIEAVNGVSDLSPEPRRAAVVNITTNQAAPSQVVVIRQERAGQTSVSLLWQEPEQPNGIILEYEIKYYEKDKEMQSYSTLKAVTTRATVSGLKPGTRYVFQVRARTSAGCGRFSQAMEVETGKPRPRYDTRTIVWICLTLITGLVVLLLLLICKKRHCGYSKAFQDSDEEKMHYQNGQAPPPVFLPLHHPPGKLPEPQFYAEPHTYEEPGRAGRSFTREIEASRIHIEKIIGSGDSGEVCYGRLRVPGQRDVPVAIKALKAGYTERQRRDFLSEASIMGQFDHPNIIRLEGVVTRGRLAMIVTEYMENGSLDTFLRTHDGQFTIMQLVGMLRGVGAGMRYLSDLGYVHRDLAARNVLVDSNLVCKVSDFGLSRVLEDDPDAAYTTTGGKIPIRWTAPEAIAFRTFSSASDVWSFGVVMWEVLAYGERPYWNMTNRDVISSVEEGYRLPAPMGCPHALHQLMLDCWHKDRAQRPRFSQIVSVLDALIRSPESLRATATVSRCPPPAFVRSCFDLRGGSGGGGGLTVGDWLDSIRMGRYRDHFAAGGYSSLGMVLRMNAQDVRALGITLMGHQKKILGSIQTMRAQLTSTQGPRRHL
How it was run: as §1

PDK1 = biological target: T13, PDK1 (Homo sapiens, UniProt O15530)
T13 construct: purchased Thermo Fisher Scientific SelectScreen (plus Nanosyn / Reaction Biology for CDK/cyclin lines)
How it was run: as §1

PKN1 (PRK1) = biological target: T14, PKN1 (PRK1) (Homo sapiens, UniProt Q16512)
T14 construct: purchased Thermo Fisher Scientific SelectScreen (plus Nanosyn / Reaction Biology for CDK/cyclin lines)
How it was run: as §1

EPHA5 = biological target: T15, EPHA5 (Homo sapiens, UniProt P54756)
T15 construct: purchased Thermo Fisher Scientific SelectScreen (plus Nanosyn / Reaction Biology for CDK/cyclin lines)
How it was run: as §1

FRK (PTK5) = biological target: T16, FRK (PTK5) (Homo sapiens, UniProt P42685)
T16 construct: purchased Thermo Fisher Scientific SelectScreen (plus Nanosyn / Reaction Biology for CDK/cyclin lines)
How it was run: as §1

MAPK1 (ERK2) = biological target: T17, MAPK1 (ERK2) (Homo sapiens, UniProt P28482)
T17 construct: purchased Thermo Fisher Scientific SelectScreen (plus Nanosyn / Reaction Biology for CDK/cyclin lines)
How it was run: as §1

CSNK1A1 (CK1 alpha 1) = biological target: T18, CSNK1A1 (CK1 alpha 1) (Homo sapiens, UniProt P48729)
T18 construct: purchased Thermo Fisher Scientific SelectScreen (plus Nanosyn / Reaction Biology for CDK/cyclin lines)
How it was run: as §1

ACVR1B (ALK4) = biological target: T19, ACVR1B (ALK4) (Homo sapiens, UniProt P36896)
T19 construct: purchased Thermo Fisher Scientific SelectScreen (plus Nanosyn / Reaction Biology for CDK/cyclin lines)
T19 sequence (P36896 24-505): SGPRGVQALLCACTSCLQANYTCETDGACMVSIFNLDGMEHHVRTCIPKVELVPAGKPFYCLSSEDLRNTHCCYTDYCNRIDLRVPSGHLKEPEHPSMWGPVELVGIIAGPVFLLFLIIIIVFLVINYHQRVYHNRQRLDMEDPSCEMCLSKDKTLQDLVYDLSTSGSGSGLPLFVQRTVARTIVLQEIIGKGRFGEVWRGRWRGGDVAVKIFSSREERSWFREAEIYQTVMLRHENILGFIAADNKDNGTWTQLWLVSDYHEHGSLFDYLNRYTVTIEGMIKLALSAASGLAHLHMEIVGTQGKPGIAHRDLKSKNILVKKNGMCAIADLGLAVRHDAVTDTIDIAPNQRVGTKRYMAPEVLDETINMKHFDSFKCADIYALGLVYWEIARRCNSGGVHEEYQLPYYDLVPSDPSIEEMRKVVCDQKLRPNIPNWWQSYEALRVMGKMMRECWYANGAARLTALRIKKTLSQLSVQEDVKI
How it was run: as §1

ITK = biological target: T20, ITK (Homo sapiens, UniProt Q08881)
T20 construct: purchased Thermo Fisher Scientific SelectScreen (plus Nanosyn / Reaction Biology for CDK/cyclin lines)
How it was run: as §1

TAOK2 (TAO1) = biological target: T21, TAOK2 (TAO1) (Homo sapiens, UniProt Q9UL54)
T21 construct: purchased Thermo Fisher Scientific SelectScreen (plus Nanosyn / Reaction Biology for CDK/cyclin lines)
How it was run: as §1

PRKCQ (PKC theta) = biological target: T22, PRKCQ (PKC theta) (Homo sapiens, UniProt Q04759)
T22 construct: purchased Thermo Fisher Scientific SelectScreen (plus Nanosyn / Reaction Biology for CDK/cyclin lines)
How it was run: as §1

BLK = biological target: T23, BLK (Homo sapiens, UniProt P51451)
T23 construct: purchased Thermo Fisher Scientific SelectScreen (plus Nanosyn / Reaction Biology for CDK/cyclin lines)
How it was run: as §1

CDC42 BPB (MRCKB) = biological target: T24, CDC42 BPB (MRCKB) (Homo sapiens, UniProt Q9Y5S2)
T24 construct: purchased Thermo Fisher Scientific SelectScreen (plus Nanosyn / Reaction Biology for CDK/cyclin lines)
How it was run: as §1

CAMK2A (CaMKII alpha) = biological target: T25, CAMK2A (CaMKII alpha) (Homo sapiens, UniProt Q9UQM7)
T25 construct: purchased Thermo Fisher Scientific SelectScreen (plus Nanosyn / Reaction Biology for CDK/cyclin lines)
How it was run: as §1

RPS6KA1 (RSK1) = biological target: T26, RPS6KA1 (RSK1) (Homo sapiens, UniProt Q15418)
T26 construct: purchased Thermo Fisher Scientific SelectScreen (plus Nanosyn / Reaction Biology for CDK/cyclin lines)
How it was run: as §1

RPS6KB2 (p70S6Kb) = biological target: T27, RPS6KB2 (p70S6Kb) (Homo sapiens, UniProt Q9UBS0)
T27 construct: purchased Thermo Fisher Scientific SelectScreen (plus Nanosyn / Reaction Biology for CDK/cyclin lines)
How it was run: as §1

HIPK1 (Myak) = biological target: T28, HIPK1 (Myak) (Homo sapiens, UniProt Q86Z02)
T28 construct: purchased Thermo Fisher Scientific SelectScreen (plus Nanosyn / Reaction Biology for CDK/cyclin lines)
T28 sequence (Q86Z02 whole entry): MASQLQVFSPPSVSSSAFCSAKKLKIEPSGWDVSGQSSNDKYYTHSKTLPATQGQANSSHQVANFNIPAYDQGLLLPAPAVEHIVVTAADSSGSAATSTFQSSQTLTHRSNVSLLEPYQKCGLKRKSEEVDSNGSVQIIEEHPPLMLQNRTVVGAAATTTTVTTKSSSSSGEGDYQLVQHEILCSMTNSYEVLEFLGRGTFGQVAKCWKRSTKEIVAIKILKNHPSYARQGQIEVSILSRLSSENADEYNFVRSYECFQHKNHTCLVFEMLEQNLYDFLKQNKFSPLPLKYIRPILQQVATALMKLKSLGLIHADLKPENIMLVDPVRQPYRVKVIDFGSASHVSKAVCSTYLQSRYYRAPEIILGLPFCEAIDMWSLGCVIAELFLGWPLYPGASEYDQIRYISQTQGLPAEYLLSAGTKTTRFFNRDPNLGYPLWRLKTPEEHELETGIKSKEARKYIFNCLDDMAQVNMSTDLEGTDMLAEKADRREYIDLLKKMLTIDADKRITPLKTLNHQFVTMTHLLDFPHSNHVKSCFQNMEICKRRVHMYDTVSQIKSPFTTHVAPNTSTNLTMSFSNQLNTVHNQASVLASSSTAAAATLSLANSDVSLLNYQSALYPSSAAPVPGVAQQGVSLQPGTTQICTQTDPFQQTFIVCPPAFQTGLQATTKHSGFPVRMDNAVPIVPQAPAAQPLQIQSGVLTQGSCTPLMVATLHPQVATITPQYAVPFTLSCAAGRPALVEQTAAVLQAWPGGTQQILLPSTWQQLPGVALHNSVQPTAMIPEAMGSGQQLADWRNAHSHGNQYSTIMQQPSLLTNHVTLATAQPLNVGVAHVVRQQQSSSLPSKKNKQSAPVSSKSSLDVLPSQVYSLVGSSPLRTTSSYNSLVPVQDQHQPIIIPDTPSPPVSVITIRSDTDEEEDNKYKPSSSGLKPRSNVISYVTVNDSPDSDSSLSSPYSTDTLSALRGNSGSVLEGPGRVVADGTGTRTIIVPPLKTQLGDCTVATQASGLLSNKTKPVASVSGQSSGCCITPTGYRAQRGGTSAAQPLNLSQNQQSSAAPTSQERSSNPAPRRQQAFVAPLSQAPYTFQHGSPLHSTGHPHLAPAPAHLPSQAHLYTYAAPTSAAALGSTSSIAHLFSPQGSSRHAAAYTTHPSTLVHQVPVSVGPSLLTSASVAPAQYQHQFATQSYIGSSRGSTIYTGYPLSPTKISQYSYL
How it was run: as §1

MKNK1 (MNK1) = biological target: T29, MKNK1 (MNK1) (Homo sapiens, UniProt Q9BUB5)
T29 construct: purchased Thermo Fisher Scientific SelectScreen (plus Nanosyn / Reaction Biology for CDK/cyclin lines)
How it was run: as §1

INSR = biological target: T30, INSR (Homo sapiens, UniProt P06213)
T30 construct: purchased Thermo Fisher Scientific SelectScreen (plus Nanosyn / Reaction Biology for CDK/cyclin lines)
How it was run: as §1

AURKB (Aurora B) = biological target: T31, AURKB (Aurora B) (Homo sapiens, UniProt Q96GD4)
T31 construct: purchased Thermo Fisher Scientific SelectScreen (plus Nanosyn / Reaction Biology for CDK/cyclin lines)
How it was run: as §1

ABL1 E255K = biological target: T32, ABL1 E255K (Homo sapiens, UniProt P00519, E255K)
T32 construct: purchased Thermo Fisher Scientific SelectScreen (plus Nanosyn / Reaction Biology for CDK/cyclin lines)
T32 sequence (P00519 whole entry E255K): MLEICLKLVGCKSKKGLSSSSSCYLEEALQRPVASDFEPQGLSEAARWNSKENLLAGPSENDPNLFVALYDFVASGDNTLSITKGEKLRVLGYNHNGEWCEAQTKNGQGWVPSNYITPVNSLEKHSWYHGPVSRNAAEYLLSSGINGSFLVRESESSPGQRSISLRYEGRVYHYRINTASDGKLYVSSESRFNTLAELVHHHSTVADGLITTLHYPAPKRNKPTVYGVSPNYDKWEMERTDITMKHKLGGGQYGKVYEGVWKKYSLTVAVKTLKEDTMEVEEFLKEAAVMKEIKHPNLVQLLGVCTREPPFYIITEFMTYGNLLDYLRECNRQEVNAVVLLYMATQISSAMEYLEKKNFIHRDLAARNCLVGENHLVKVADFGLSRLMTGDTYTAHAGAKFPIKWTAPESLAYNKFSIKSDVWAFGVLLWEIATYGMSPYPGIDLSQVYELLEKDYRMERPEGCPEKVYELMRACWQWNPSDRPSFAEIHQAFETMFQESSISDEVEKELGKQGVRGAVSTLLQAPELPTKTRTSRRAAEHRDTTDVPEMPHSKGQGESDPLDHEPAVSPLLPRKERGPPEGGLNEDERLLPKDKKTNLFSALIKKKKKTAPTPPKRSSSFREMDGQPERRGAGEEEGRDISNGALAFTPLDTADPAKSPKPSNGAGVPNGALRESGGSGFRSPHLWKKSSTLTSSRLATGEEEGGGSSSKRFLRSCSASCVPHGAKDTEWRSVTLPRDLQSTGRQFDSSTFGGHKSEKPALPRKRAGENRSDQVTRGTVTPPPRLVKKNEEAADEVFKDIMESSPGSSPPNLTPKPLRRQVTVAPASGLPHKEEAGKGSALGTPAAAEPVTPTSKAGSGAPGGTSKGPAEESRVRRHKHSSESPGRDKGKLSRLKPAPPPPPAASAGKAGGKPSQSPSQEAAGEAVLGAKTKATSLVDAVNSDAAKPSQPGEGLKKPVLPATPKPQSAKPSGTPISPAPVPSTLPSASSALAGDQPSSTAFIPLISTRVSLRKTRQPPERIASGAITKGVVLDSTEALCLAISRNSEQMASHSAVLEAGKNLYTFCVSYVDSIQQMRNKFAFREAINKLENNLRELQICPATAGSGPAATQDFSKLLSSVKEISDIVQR
How it was run: as §1

DCAMKL1 (DCLK1) = biological target: T33, DCAMKL1 (DCLK1) (Homo sapiens, UniProt O15075)
T33 construct: purchased Thermo Fisher Scientific SelectScreen (plus Nanosyn / Reaction Biology for CDK/cyclin lines)
How it was run: as §1

DCAMKL2 (DCK2) = biological target: T34, DCAMKL2 (DCK2) (Homo sapiens, UniProt Q8N568)
T34 construct: purchased Thermo Fisher Scientific SelectScreen (plus Nanosyn / Reaction Biology for CDK/cyclin lines)
How it was run: as §1

PRKCD (PKC delta) = biological target: T35, PRKCD (PKC delta) (Homo sapiens, UniProt Q05655)
T35 construct: purchased Thermo Fisher Scientific SelectScreen (plus Nanosyn / Reaction Biology for CDK/cyclin lines)
How it was run: as §1

PLK3 = biological target: T36, PLK3 (Homo sapiens, UniProt Q9H4B4)
T36 construct: purchased Thermo Fisher Scientific SelectScreen (plus Nanosyn / Reaction Biology for CDK/cyclin lines)
How it was run: as §1

RPS6KA4 (MSK2) = biological target: T37, RPS6KA4 (MSK2) (Homo sapiens, UniProt O75676)
T37 construct: purchased Thermo Fisher Scientific SelectScreen (plus Nanosyn / Reaction Biology for CDK/cyclin lines)
How it was run: as §1

SMILES: NS(=O)(=O)c1ccc(Nc2ncc3cc4n(c3n2)C2(CCCCC2)C(=O)NN4)cc1 [INX-315]
- inhibition at 0.1 µM (MATK (HYL)): 6%
- inhibition at 0.1 µM (EPHA1): 22%
- inhibition at 0.1 µM (PRKCH (PKC eta)): 11%
- inhibition at 0.1 µM (KIT): 9%
- inhibition at 0.1 µM (MAPK9 (JNK2)): -1%
- inhibition at 0.1 µM (PRKG2 (PKG2)): -1%
- inhibition at 0.1 µM (MAP2K1 (MEK1)): 15%
- inhibition at 0.1 µM (FLT3): 40%
- inhibition at 0.1 µM (RPS6KA5 (MSK1)): 8%
- inhibition at 0.1 µM (ERBB4 (HER4)): 2%
- inhibition at 0.1 µM (GSK3A (GSK3 alpha)): 11%
- inhibition at 0.1 µM (EPHA8): 16%
- inhibition at 0.1 µM (PDK1): 7%
- inhibition at 0.1 µM (PKN1 (PRK1)): 7%
- inhibition at 0.1 µM (EPHA5): 1%
- inhibition at 0.1 µM (FRK (PTK5)): 7%
- inhibition at 0.1 µM (MAPK1 (ERK2)): 4%
- inhibition at 0.1 µM (CSNK1A1 (CK1 alpha 1)): 5%
- inhibition at 0.1 µM (ACVR1B (ALK4)): -2%
- inhibition at 0.1 µM (ITK): 5%
- inhibition at 0.1 µM (TAOK2 (TAO1)): 10%
- inhibition at 0.1 µM (PRKCQ (PKC theta)): 8%
- inhibition at 0.1 µM (BLK): 11%
- inhibition at 0.1 µM (CDC42 BPB (MRCKB)): -1%
- inhibition at 0.1 µM (CAMK2A (CaMKII alpha)): -4%
- inhibition at 0.1 µM (RPS6KA1 (RSK1)): 47%
- inhibition at 0.1 µM (RPS6KB2 (p70S6Kb)): 4%
- inhibition at 0.1 µM (HIPK1 (Myak)): 6%
- inhibition at 0.1 µM (MKNK1 (MNK1)): 3%
- inhibition at 0.1 µM (INSR): 7%
- inhibition at 0.1 µM (AURKB (Aurora B)): 53%
- inhibition at 0.1 µM (ABL1 E255K): 11%
- inhibition at 0.1 µM (DCAMKL1 (DCLK1)): 9%
- inhibition at 0.1 µM (DCAMKL2 (DCK2)): -1%
- inhibition at 0.1 µM (PRKCD (PKC delta)): -5%
- inhibition at 0.1 µM (PLK3): -2%
- inhibition at 0.1 µM (RPS6KA4 (MSK2)): 4%
